Experiments:
barnyardgrass [1] = assay: Test C preemergence; type: in vivo, Echinochloa crusgalli; conditions: Preemergence, 1000 g ai/ha; visual rating after 10 days, 0 to 100 scale (0 no effect, 100 complete control)
Outline: (§1)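 Pre: seeds in loam/sand, directed soil spray. Post: 1–2 leaf plants, 2–10 cm. Cmpd in non-phytotoxic solvent + surfactant. Greenhouse 10 d; visual rating vs untreated, 0 = none, 100 = complete control.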

blackgrass [2] = assay: Test C preemergence; type: in vivo, Alopecurus myosuroides; conditions: Preemergence, 1000 g ai/ha; visual rating after 10 days, 0 to 100 scale (0 no effect, 100 complete control)
Outline: as §1

green foxtail [3] = assay: Test C preemergence; type: in vivo, Setaria viridis; conditions: Preemergence, 1000 g ai/ha; visual rating after 10 days, 0 to 100 scale (0 no effect, 100 complete control)
Outline: as §1

kochia [4] = assay: Test C preemergence; type: in vivo, Bassia scoparia; conditions: Preemergence, 1000 g ai/ha; visual rating after 10 days, 0 to 100 scale (0 no effect, 100 complete control)
Outline: as §1

pigweed, palmer [5] = assay: Test C preemergence; type: in vivo, Amaranthus palmeri; conditions: Preemergence, 1000 g ai/ha; visual rating after 10 days, 0 to 100 scale (0 no effect, 100 complete control)
Outline: as §1

ragweed [6] = assay: Test C preemergence; type: in vivo, Ambrosia artemisiifolia; conditions: Preemergence, 1000 g ai/ha; visual rating after 10 days, 0 to 100 scale (0 no effect, 100 complete control)
Outline: as §1

ryegrass, Italian [7] = assay: Test C preemergence; type: in vivo, Lolium multiflorum; conditions: Preemergence, 1000 g ai/ha; visual rating after 10 days, 0 to 100 scale (0 no effect, 100 complete control)
Outline: as §1

barnyardgrass [8] = assay: Test C postemergence; type: in vivo, Echinochloa crusgalli; conditions: Postemergence, 1000 g ai/ha; 0 to 100 scale, 0 no effect, 100 complete control
Outline: as §1

blackgrass [9] = assay: Test C postemergence; type: in vivo, Alopecurus myosuroides; conditions: Postemergence, 1000 g ai/ha, 10 days, visual 0 to 100 scale (0 no effect, 100 complete control)
Outline: as §1

green foxtail [10] = assay: Test C postemergence; type: in vivo, Setaria viridis; conditions: Postemergence, 1000 g ai/ha, 10 days, visual 0 to 100 scale (0 no effect, 100 complete control)
Outline: as §1

kochia [11] = assay: Test C postemergence; type: in vivo, Bassia scoparia; conditions: Postemergence, 1000 g ai/ha, 10 days, visual 0 to 100 scale (0 no effect, 100 complete control)
Outline: as §1

pigweed, palmer [12] = assay: Test C postemergence; type: in vivo, Amaranthus palmeri; conditions: Postemergence, 1000 g ai/ha, 10 days, visual 0 to 100 scale (0 no effect, 100 complete control)
Outline: as §1

ragweed [13] = assay: Test C postemergence; type: in vivo, Ambrosia artemisiifolia; conditions: Postemergence, 1000 g ai/ha, 10 days, visual 0 to 100 scale (0 no effect, 100 complete control)
Outline: as §1

ryegrass, Italian [14] = assay: Test C postemergence; type: in vivo, Lolium multiflorum; conditions: Postemergence, 1000 g ai/ha, 10 days, visual 0 to 100 scale (0 no effect, 100 complete control)
Outline: as §1

galium = assay: Test C postemergence; type: in vivo, Galium aparine; conditions: Postemergence, 1000 g ai/ha, 10 days, visual 0 to 100 scale (0 no effect, 100 complete control)
Outline: as §1

horseweed = assay: Test C postemergence; type: in vivo, Erigeron canadensis; conditions: Postemergence, 1000 g ai/ha, 10 days, visual 0 to 100 scale (0 no effect, 100 complete control)
Outline: as §1

barnyardgrass [15] = assay: Test D flooded paddy test; type: in vivo, Echinochloa crus-galli; conditions: 250 g ai/ha, applied to paddy water, visual rating after 13 to 14 days, scale 0 to 100 (0 no effect, 100 complete control)
Outline: (§2)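 Rating scale 0–100 (0 no effect, 100 complete control), visual, versus controls. Readout at 13–14 days after in-water application to 2-leaf plants in pots flooded 3 cm deep.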

ducksalad = assay: Test D flooded paddy test; type: in vivo, Heteranthera limosa; conditions: 250 g ai/ha, applied to paddy water, visual rating after 13 to 14 days, scale 0 to 100 (0 no effect, 100 complete control)
Outline: as §2

rice = assay: Test D flooded paddy test; type: in vivo, Oryza sativa; conditions: 250 g ai/ha, applied to paddy water, visual rating after 13 to 14 days, scale 0 to 100 (0 no effect, 100 complete control)
Outline: as §2

sedge, umbrella = assay: Test D flooded paddy test; type: in vivo, Cyperus difformis; conditions: 250 g ai/ha, applied to paddy water, visual rating after 13 to 14 days, scale 0 to 100 (0 no effect, 100 complete control)
Outline: as §2

## Cc1cnn(-c2cccc(C(=O)N3C[C@H](C)Oc4c(Cl)cccc43)c2)c1 [Compound 207]
Barnyardgrass [1]
  Plant response rating, Barnyardgrass: 90
Blackgrass [2]
  Plant response rating, Blackgrass: 20
Green foxtail [3]
  Plant response rating, Foxtail, Green: 90
Kochia [4]
  Plant response rating, Kochia: 30
pigweed, palmer [5]
  Plant response rating, Pigweed, Palmer: 90
Ragweed [6]
  Plant response rating, Ragweed: 0
ryegrass, Italian [7]
  Plant response rating, Ryegrass, Italian: 90
Barnyardgrass [8]
  Plant response rating, Barnyardgrass: 30
Blackgrass [9]
  Plant response rating, Blackgrass: 10
Green foxtail [10]
  Plant response rating, Foxtail, Green: 10
Kochia [11]
  Plant response rating, Kochia: 20
pigweed, palmer [12]
  Plant response rating, Pigweed, Palmer: 90
Ragweed [13]
  Plant response rating, Ragweed: 10
ryegrass, Italian [14]
  Plant response rating, Ryegrass, Italian: 70
galium
  Plant response rating, Galium: 10
horseweed
  Plant response rating, Horseweed: 10
Barnyardgrass [15]
  Plant response rating, Barnyardgrass (Flood): 0
ducksalad
  Plant response rating, Ducksalad (Flood): 0
rice
  Plant response rating, Rice (Flood): 0
sedge, umbrella
  Plant response rating, Sedge, Umbrella (Flood): 0

Source: patent US20260262643A1, “HERBICIDAL BENZOXAZINES” (FMC CORPORATION, priority 2022, published 2026)
